Consider one compound from publication PMC8952293, “A Histone Deacetylase (HDAC) Inhibitor with Pleiotropic In Vitro Anti-Toxoplasma and Anti-Plasmodium Activities Controls Acute and Chronic Toxoplasma Infection in Mice” (International Journal of Molecular Sciences, 2022).

Series [1] deals with T. gondii type II Prugniaud strain. Briefly: Chronic phase study: brain cyst burden in infected CBA mice. The format is in vivo, mouse. Here is the method:
To assess the efficacy of compound JF363 on Toxoplasma cyst formation, infected CBA mice were treated for 15 days, two months post-infection. Then, 15 days later, mice were sacrificed, and brain cysts were counted.
Inbred CBA mice (Janvier Labs, Le Genest-Saint-Isle, France) were infected with 500 tachyzoites of Pru-DeltaKu80::HX strain. One month post-infection, effective infection was assessed by ELISA as described previously. Two months post-infection, mice were treated with 20 or 40 mg/kg of JF363 (corn oil/5% DMSO) for 15 days. Animals were sacrificed 15 days later, corresponding to 3 months post-infection, and brain cysts were counted. After removal and homogenization of mouse’s brain in 4 mL of PBS, suspensions were clarified by gentle incubation in proteinase K buffer (proteinase K 0.4 mg/mL, 10 mM Tris pH 8, ethylenediaminetetraacetic acid (EDTA) 1 mM, sodium dodecyl sulfate (SDS) 0.2%, sodium chloride 40 mM) for 15 min at 56 °C. The reaction was stopped by adding phenylmethylsulfonyl fluoride (PMSF) 2 mM and further incubation for 5 min at room temperature. The suspension was then washed with PBS and resuspended with fluorescein isothiocyanate (FITC)–Dolichos biflorus agglutinin (Vector Laboratories, CA, USA) […] for 30 min, at room temperature. At the end of the incubation, the suspension was washed with PBS and resuspended in a final volume of 1 mL of PBS distributed into six-well culture plates (1 brain per well). The number of cysts was counted by exanimation under an Axiovert 40 CFL inverted fluorescence microscope, Zeiss.

For series [2] the following is noted: mouse, in vivo.
For the next series, the system named is P. falciparum NF54. Briefly: In vitro P. falciparum erythrocytic infection (SYBR green I flow cytometry). It counts as cell-based. To be noted: Plasmodium falciparum, PfNF54 blood stage, 48 h, three independent experiments. As for the experimental part:
Blood stage. Ring-stage synchronized cultures of PfNF54 at 2.5% hematocrit and at approximately 1% parasitemia were incubated with drugs or DMSO (vehicle control) in 96-well plates, for 48 h, at 37 °C in a 5% CO2 and 5% O2 atmosphere. The stock solution of JF363 was prepared in DMSO. Working solutions (1, 10, 100, 200, 500, 1000, 2000 nM) were prepared from the stock solution in a complete malaria culture medium (CMCM), which consisted of RPMI 1640 supplemented with 25 mM HEPES, 2.4 mM L-glutamine, 50 μg/mL gentamicin, 0.5% w/v AlbuMAX (Gibco BRL), 11 mM glucose, 1.47 mM hypoxanthine, and 37.3 mM NaHCO3. Five microliters of the culture (approximately 800,000 cells) was stained with the DNA-specific dye SYBR green I for each measurement. Following 20 min incubation in the dark, the stained sample was analyzed by flow cytometry. For each flow cytometry measurement, approximately 100,000 events were analyzed. All samples were analyzed in triplicate, and three different experiments were performed and analyzed using GraphPad Prism 8 (Prism 4 for Mac OS X, version 5.0b, San Diego, CA, USA).
(In general: Flow cytometry measures light scatter and fluorescence of single cells or particles in a stream.)

The subject of series [3] is P. berghei hepatic infection. Description: In vitro P. berghei hepatic infection of Huh7 cells (bioluminescence). The format is cell-based. To be noted: Plasmodium berghei, Huh-7. Here is the method: Huh7 cells, a human hepatic cell line employed in the assessment of drug activity against the hepatic stage of P. berghei infection, were cultured in RPMI 1640 supplemented with 10% (v/v) fetal bovine serum, 1% (v/v) penicillin/streptomycin, 1% (v/v) glutamine, 1% (v/v) nonessential amino acids, and 10 mM N-2-hydroxyethylpiperazine-N′-2-ethanesulfonic acid (HEPES) at 37 °C and 5% CO2. For infection, Huh7 cells were seeded in 96-well plates at 1 × 10^4 cells/well.
Liver stage. The action of JF363 against the liver stage of P. berghei infection was assessed by bioluminescence, as previously described. Briefly, one day before infection, Huh7 cells were seeded in 96-well plates. JF363 stock solution was prepared in dimethyl sulfoxide (DMSO) and serially diluted in infection medium (culture medium supplemented with 50 µg/mL of gentamicin and 0.8 µg/mL of fungizone) to obtain the test concentrations (1, 10, 25, 50, […], 500 nM). […] At 46 h post-infection, the impact of the compound on cell viability was assessed by the AlamarBlue assay (Invitrogen, Carlsbad, CA, USA), following the manufacturer’s instructions. Following the manufacturer’s instructions, the drug’s effect on the parasite load was next evaluated using the Firefly Luciferase Assay Kit 2.0 (Biotium, Fremont, CA, USA). […]

For a further series, the system named is Huh7 cells. Briefly: Host cell viability (cell confluency, AlamarBlue) in the hepatic infection assay. The format is cell-based, human. To be noted: at the tested concentrations (up to 500 nM). Here is the method: Liver stage. The action of JF363 against the liver stage of P. berghei infection was assessed by bioluminescence, as previously described. Briefly, one day before infection, Huh7 cells were seeded in 96-well plates. JF363 stock solution was prepared in dimethyl sulfoxide (DMSO) and serially diluted in infection medium (culture medium supplemented with 50 µg/mL of gentamicin and 0.8 µg/mL of fungizone) to obtain the test concentrations (1, 10, 25, 50, […], 500 nM). These were added to the cells and incubated for 1 h at 37 °C and 5% CO2, after which 1 × 10^4 sporozoites were added to the wells. Plates were centrifuged at 1800× g for 5 min and incubated at 37 °C with 5% CO2 for the assay duration. At 46 h post-infection, the impact of the compound on cell viability was assessed by the AlamarBlue assay (Invitrogen, Carlsbad, CA, USA), following the manufacturer’s instructions. Following the manufacturer’s instructions, the drug’s effect on the parasite load was next evaluated using the Firefly Luciferase Assay Kit 2.0 (Biotium, Fremont, CA, USA). For IC50 determination, nonlinear regression analysis was employed to fit the normalized results of the dose–response curves, using GraphPad Prism 8 (Prism 4 for Mac OS X, version 5.0b, San Diego, CA, USA).
For orientation: The colour change of resazurin is a common sign of viable cells or microbes.

As usually defined, the IC50 is the point on the concentration scale where inhibition reaches its midpoint. High values mean a need for much substance, low ones inhibition by little substance. With `COc1cccc(CC(=O)Nc2ccc(C(=O)NO)cc2)c1` [JF363], the “diminution of cyst burden in the brain compared to untreated animals” value in series [1] (40 mg/kg) was determined as 65%. In addition, the “number of brain cysts, range” value in series [1] (40 mg/kg oral for 15 days, two months post-infection, nontreated 76 to 312) is recorded as 21–85. The “number of brain cysts (mean ± SD)” value in series [1] (40 mg/kg oral for 15 days, two months post-infection, nontreated 168 ± 95, p < 0.05) is on record as 57 ± 29. In addition, in series [2], the “toxicity in healthy treated mice (survival, hair loss, erythema, organ failure)” value is “not toxic”. In addition, the concentration for half-maximal inhibition (IC50) is 0.23 ± 0.015 µM in the series with P. falciparum NF54; 0.0989 ± 0.0227 µM in series [3] (Pb hepatic infection, Huh7 cells, 46 h post-infection); about 0.1 µM in series [3] (hepatic stage of Plasmodium infection (discussion)). The “toxicity towards the hepatic host cells (cell confluency)” value in the series on Huh7 cells is reported as “did not present toxicity”.
